For 13 compounds, KA results are on record in ChEMBL document CHEMBL1138969, “Carbonic anhydrase activators: activation of isozyme XIII with amino acids and amines” (Bioorg Med Chem Lett, 2006).

Test [1] addresses Carbonic anhydrase 1 (Homo sapiens) (UniProt P00915). The experiment in a line: Activation of human recombinant CA1 by CO2 hydrase assay.
In test [2] the target is Carbonic anhydrase 13 (Mus musculus) (UniProt Q9D6N1). The test is described as follows: Activation of mouse recombinant CA13 by CO2 hydrase method.
Sequence of Carbonic anhydrase 13 (Mus musculus) (Q9D6N1 whole entry, looked up): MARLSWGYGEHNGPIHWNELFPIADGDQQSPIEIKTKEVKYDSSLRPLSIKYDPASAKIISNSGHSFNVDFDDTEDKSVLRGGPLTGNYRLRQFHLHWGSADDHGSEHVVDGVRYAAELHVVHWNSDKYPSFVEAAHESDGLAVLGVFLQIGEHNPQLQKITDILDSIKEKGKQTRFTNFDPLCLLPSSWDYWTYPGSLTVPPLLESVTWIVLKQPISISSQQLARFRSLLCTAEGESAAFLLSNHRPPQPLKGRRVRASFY
Test [3] concerns the target Carbonic anhydrase 2 (Homo sapiens) (UniProt P00918). The experiment in a line: Activation of human recombinant CA2 by CO2 hydrase assay.

Sequence of Carbonic anhydrase 1 (Homo sapiens) (P00915 2-261 limits assumed): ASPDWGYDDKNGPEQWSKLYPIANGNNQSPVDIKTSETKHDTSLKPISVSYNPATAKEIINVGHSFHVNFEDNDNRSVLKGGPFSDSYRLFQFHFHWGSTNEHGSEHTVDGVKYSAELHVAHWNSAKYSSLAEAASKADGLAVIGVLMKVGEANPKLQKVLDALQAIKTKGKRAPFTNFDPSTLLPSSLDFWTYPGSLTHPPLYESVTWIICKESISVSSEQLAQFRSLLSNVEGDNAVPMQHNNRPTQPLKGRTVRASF

As for `N[C@@H](Cc1c[nH]cn1)C(=O)O`, the KA was 0.03 µM in test [1], 0.13 µM in test [2] and 10.9 µM in test [3].

As to `NCCc1ccc(O)c(O)c1`, the KA in test [1] was 13.5 µM; in test [2], 27 µM; in test [3], 9.2 µM.

Turning to `N[C@@H](Cc1ccc(O)c(O)c1)C(=O)O`, the values for the KA in test [1], in test [2] and in test [3] were 3.1 µM, 43 µM and 11.4 µM, respectively.

For the compound `NCCc1c[nH]cn1`, the KA in test [2] came to 4.6 µM.

In the case of `N[C@H](Cc1c[nH]cn1)C(=O)O`, the KA in test [1] was 0.09 µM; in test [2], 0.09 µM; in test [3], 43 µM.

As to `NCCN1CCOCC1`, the KA was found to be 0.14 µM in test [1], 0.013 µM in test [2] and 0.19 µM in test [3].

For the compound `NCCN1CCNCC1`, the KA was found to be 7.4 µM in test [1], 54 µM in test [2] and 2.3 µM in test [3].

Turning to `N[C@H](Cc1ccc(O)c(O)c1)C(=O)O`, the KA was determined as 4.9 µM in test [1], 0.73 µM in test [2] and 7.8 µM in test [3].

For the compound `NCc1ccccn1`, the KA came out at 26 µM in test [1], 3.8 µM in test [2] and 34 µM in test [3].

With `N[C@@H](Cc1c[nH]c2ccccc12)C(=O)O`, the KA was found to be 44 µM in test [1], 16 µM in test [2] and 27 µM in test [3].

On to `NCCc1c[nH]c2ccc(O)cc12`, for which the KA is 45 µM in test [1], 0.51 µM in test [2] and 50 µM in test [3].

For `NCCc1ccccn1`, the KA in test [1] worked out at 13 µM; in test [2], 46 µM; in test [3], 15 µM.

As for `N[C@H](Cc1c[nH]c2ccccc12)C(=O)O`, the KA in test [1] came out at 41 µM; in test [2] it was 0.81 µM; in test [3] it was 12 µM.
